According to patent US20030228988A1, “Ozone solutions” (Otre AB, priority 2002, published 2003):
Read-outs that look alike come from different tables or passages of the source.

Experiments:
[1] = Ozone stability in the presence of acetic and oxalic acid; settings: for increase of the lifetime of the ozone (factor) compared with pure ozone solution: acid approximately 0.01M, ozone approximately 6 ppm
Experimental: The following procedure was applied in the analysis of ozone concentration. Magnetic stirrer was used to obtain a homogeneous solution. The ozone concentration, pH and temperature were registered every 30 seconds, until ozone no longer could be detected.
An aqueous ozone solution with a concentration of approximately 6 ppm was tapped directly from the ozone generator into a beaker. The ozone electrode was used to register the changes in concentration. Acetic or oxalic acid was added directly to the solution. The concentration of the acids was approximately 0.01M.

[2] = Ozone stability in the presence of different concentrations of SDS; assay type: physicochemical; settings: 200 mM vs 0.1 mM SDS, ozone approximately 6 ppm
Experimental: One of the surfactants, SDS, was tested at two different concentrations: Low concentration (0.1 mM), where the surfactant exists […], and high concentration (200 mM), where the surfactant exists in the form of both micelles and linear (paraffinic) chains. […] However, in order to obtain these states the surfactant solution has to be heated.
Magnetic stirrer was used to obtain a homogeneous solution.
SDS was added directly to the aqueous ozone solution, yielding solutions having concentrations of 0.1 mM and 200 mM with respect to SDS The result is seen in FIG. 4, namely that the higher concentration of SDS increases the lifetime of ozone by a factor 5 compared with the lower concentration.

[3] = Ozone stability in the presence of different surfactants (ozone electrode); assay type: physicochemical; settings: ozone approximately 6 ppm, surfactant approximately 0.1 mM, approximately the same pH
Experimental: Deionised water was used in all aqueous solutions. All experiments were made at room temperature, ˜23° C. The variation of the temperature between the different experiments was relatively small and should not have any significant effect on the outcome. All tests were made at least twice in order to verify the reproducibility. […] Magnetic stirrer was used to obtain a homogeneous solution. […] The concentration of the surfactants was approximately 0.1 mM. […] The solution was filtered to remove the formed precipitate, AgBr.

[4] = Oxidation of organic acids by ozone, 13C NMR and IR before and after ozone treatment; assay type: physicochemical; settings: 0.1M acid bubbled with ozone for five hours
Experimental: The aqueous solutions of the acids were analysed using ^13C NMR and IR spectroscopy before and after treatment with ozone.
In order to verify that the organic acids had not been oxidised by ozone an additional test was made 300 ml of an aqueous solution of acid (0.1M, 30×10^−3 mol) was bubbled with ozone for five hours. The gaseous concentration of ozone was ˜100 g/m^3. The airflow was 0 2 l/minute, which gives 1.2 g ozone/h ([…]). The aqueous solutions were analysed using ^13C NMR and IR spectroscopy before and after treatment with ozone. The results are shown in FIGS. 9-12, namely that the peaks in the spectrograms of the pure acid solutions (FIGS. 9 and 11) had not changed their appearance after prolonged treatment with ozone (FIGS. 10 and 12)

## CC(=O)O [Acetic acid, acetic acid]
[1]
  effect on ozone stability: positive effect on ozone stability
  increase of the lifetime of the ozone (factor) compared with pure ozone solution: 2

## CCCCCCCCCCCCOS(=O)(=O)[O-].[Na+] [SDS, sodium dodecyl sulphate]
[2]
  increase of the lifetime of ozone (factor), higher concentration compared with the lower concentration: 5
[3]; ~23° C.
  increase of the lifetime of ozone compared with a pure ozone solution: three to four fold

## CCCCCCCCCCCCO[C@@H]1O[C@H](CO)[C@@H](O[C@H]2O[C@H](CO)[C@@H](O)[C@H](O)[C@H]2O)[C@H](O)[C@H]1O [dodecyl b-D-maltoside]
[3]
  depletion rate of ozone relative to the depletion rate of pure ozone solution: about half

## O=C(O)C(=O)O [oxalic acid]
[1]; FIGS. 5 and 6
  effect on ozone stability: positive effect on ozone stability
[1]
  increase of the lifetime of the ozone (factor) compared with pure ozone solution: 2
[4]
  decomposition / reaction of the acid after treatment with ozone (13C NMR, IR): does not react with ozone
